Read-outs that look alike come from different tables or passages of the source.
What was measured:
[1] = test system: corpora cavernosa smooth muscle; conditions: hypercholesterolemic rabbits, three weekly intracavernosal injections of VEGF
Experimental: Fifteen male New Zealand White rabbits weighing 2 to 2.5 kg were used in a total of two arms in the study. […] Random serum total cholesterol levels were measured at the beginning of the study and after four weeks of the 1% cholesterol diet. At the end of four weeks, each rabbit underwent total penectomy and then was sacrificed. Each penis yielded two strips of tissue with a small amount of erectile tissue being placed in neutral buffered formalin 10%. The strips were suspended in tissue baths, and isometric tension studies were performed. Dose-response curves for norepinephrine were generated first in each strip to assess adrenergic-mediated cavernosal smooth muscle contraction. Next, dose-response curves for histamine were generated to assess histamine receptor mediated contraction of cavernosal smooth muscle. Submaximal contraction was then produced with 10^−3 concentration of norepinephrine and dose-response curves were then generated to evaluate endothelial-dependent (acetylcholine) smooth muscle relaxation. Once again, a submaximal contraction was produced using 10^−5 concentration of norepinephrine and dose response curves were then generated to evaluate endothelial-independent (sodium nitroprusside) smooth muscle relaxation.
Tissue. Cavernosal tissue procurement was performed under general anesthesia induced with Ketamine 50 mg/kg SC (Ketaset, Bristol Laboratories, Syracuse, N.Y.) and Xylazine 30 mg/kg SC (Rompun, Mobay Corp., Shawnee, Kans.). The penis was excised en bloc and placed in warm Krebs solution, where the corpora cavernosa were sharply dissected from the tunica albuginea producing a strip (approximately 0.3×0.3×0.7 cm.) from each corpus. The strips were then mounted in the oxygen tissue baths. After tissue collection, the rabbits were euthanized with an overdose of intravenous sodium pentobarbitol (100 mg/kg to effect). Care was taken throughout the procedure to minimize tissue manipulation.
Tissue Chambers. Each cavernosal strip was placed in a 25 ml tissue bath (Kent Scientific Corp.. Litchfield, Conn.). One end was hooked to a tissue holder and the other end w as hooked to a force transducer (FTO3, Grass Instruments, Quincy, Mass.) for determination of isometric tension. The bath was filled with a modified Kreb's physiologic salt solution with the following millimolar composition: NaCl 122, KCl 4.7, MgCl2 1.2, CaCl2 2.5, NaHCO3 15.4, KH2PO4 1.2. and glucose 5.5. A circulating water bath kept tissue chamber temperatures at 37C. Continuous aeration with 95% oxygen and 5% carbon dioxide maintained a pH of 7.4.
Optimal isometric tension determination. Each of the force transducers was connected to a transducer positioner enabling preload tension adjustment. Following suspension in the tissue chambers, the tension was periodically adjusted (at least every fifteen minutes) until the strip equilibrated at 0.5 gm. […] The optimal preload tension was then determined by contracting the tissue with 60 mM KCl Krebs solution (prepared by substituting 60 mM of sodium with equimolar amounts of potassium in Krebs-PSS solution) at increasing levels of preload (0.5 gm. increments). […] All subsequent testing was then performed at the determined optimal resting tension for each strip: Monitoring of tension was done with a four-channel polygraph (Grass 7D, Grass Instruments).
Isometric tension studies. The tissue was washed with Kreb's solution every fifteen minutes after each study until the tissue returned to baseline (at least one hour). Dose response curves for norepinephrine were obtained by cumulative addition of norepinephrine (10^−9 to 10^−4) in logarithmic increments.

[2] = test system: VEGF in corporal tissue
Experimental: Animals: 36 New Zealand White rabbits were fed either a normal rabbit diet (n=12) or a 1% cholesterol diet (n=24) (Harland Teklab, Madison, Wis.) for a total of 7.5 weeks. […] Ten days after the injection, the rabbits were euthanized and underwent penectomy with meticulous dissection of the corpora cavernosa from the tunica albuginia. Total serum cholesterol was determined prior to the initiation of the experimental diet and immediately prior to the procedure.
Frozen corporal tissues were sonicated in 50 mM Tris radioimmunoprecipation assay buffer for 1 minute for protein isolation. […] The samples were quantified with a Molecular Devices Kinetic microplate reader using Apple SoftMax software. One ELISA was performed for each animal in each treatment group.
Statistical evaluation. Data are expressed as the mean standard error of the mean (SEM). […] Statistical significance was determined at the 0.05 level.

[3] = test system: adult rabbit penis; conditions: intracavernosal injections of VEGF
[4] = test system: VEGF protein expression in corporal tissue; conditions: for VEGF immunoexpression: IC VEGF 0.9 mg, mean±SEM
Experimental: (§1) Animals: Male New Zealand White rabbits weighing 2.5-3 kg were fed either a normal rabbit diet (n=12) or a 1% cholesterol diet (n=12) (Harland Teklab, Madison, Wis.) for a total of 7.5 weeks. […] Ten days after the injection, the rabbits were euthanized and underwent penectomy with meticulous dissection of the corpora cavernosa from the tunica albuginia. Total serum cholesterol was determined using the enzymatic method prior to the initiation of the experimental diet and on serum samples drawn immediately prior to the procedure. Animal care and handling complied with published Guidelines (Institute of Laboratory Animal Resources, Commission on Life Sciences, National Research Council. Guide for the Care and Use of Laboraiton Animals. Washington: National Academy Press (1996)).
(§2) Statistical evaluation. Each treatment group contained 6 animals (corporal strip n=12). Data are expressed as the mean±standard error of the mean (SEM). The responses of strips from each treatment group to acetylcholine or sodium nitroprusside were compared using the independent samples T-Test. […] The ED50 (sensitivity) and the maximal response were the principal outcomes assessed for each agent, and adjusting for multiple comparisons each outcome was assessed at the 0.025 level. Secondary outcomes, including cholesterol level, and the ED25 and the ED75 for each agent were tested at the 0.05 level without adjustment for multiple comparisons.
(§3) The route of administration can affect the efficacy of treatments for erectile dysfunction, as is seen in the difference between intrauretheral and intracavernosal alprostadil. […] Ten days after injection isometric tension studies were performed on corporal tissue. Sensitivity and maximal relaxation to acetylcholine (ACH) and sodium nitroprusside (SNP) were compared between treatment groups.
(§4) Ten days after injection, their corpora cavernosa were harvested, and isometric tension studies were performed. Relaxation to acetylcholine (ACH) and sodium nitroprusside (SNP) was compared within each group.

[5] = test system: trabecular smooth muscle content of corporal tissue; conditions: cholesterol-fed rabbits
Experimental: as §1
as §2, with “Secondary outcomes, including cholesterol level, and the ED25 and the ED75 for each agent were tested at the 0.05 level without adjustment for multiple comparisons.” left out

[6] = test system: corporal smooth muscle; conditions: for Acetylcholine ED50 (−Log (M)) / Sodium Nitroprusside ED50 (−Log (M)): 10 days after injection, mean SEM
Experimental: as §1
Isometric tension studies. Two corporal strips from each animal were suspended in 5 ml capacity organ baths containing Krebs physiological salt solution (122 mmol/liter NaCl. 4.7 mmol/liter KCl, 1.2 mmol/liter MgCl2, 2.5 mmol/liter CaCl2, 15.4 mmol/liter NaHCO3, 1.2 mmol/liter KH2PO4, and 5.5 mmol/liter glucose) maintained at 37° C. and oxygenated with 95% O2 and 5% CO2. Strips were attached to an adjustable force transducer and isometric responses were recorded on a multi-channel polygraph (Myograph F-60; Physiograph MK111-S; Narco Bio-Systems, Houston, Tex.). […] All subsequent testing was then performed at the optimal resting tension for each strip. Strips were sub-maximally pre-contracted with 10^−5 M norepinephrine, and after a contractile plateau was reached, acetylcholine (10^−8 to 10^−3 M) or sodium nitroprusside (10^−8 to 10^−4 M) was added cumulatively in logarithmic increments. Relaxation in response to each agent is expressed as a percentage of the active tension generated by the 10^−5 M dose of norepinephrine and converted to percentage of maximal response at each dose. These values were plotted against the negative logarithm of the agonist dose to produce relaxation dose-response curves. Logistic regression analysis with logit transformation was performed on the cumulative dose response curves from each treatment group to determine the ED25. ED50 and ED75 for each agent (Finney, Statistical Method in Biological Assay (3 ed.). London: Charles Griffin and Company LTD, p. 349-369 (1978), Kim et al, J Urol 151:198-205 (1994)).
as §2, §3, §4
Animals: 36 New Zealand White rabbits were fed either a normal rabbit diet (n=12) or a 1% cholesterol diet (n=24) (Harland Teklab, Madison, Wis.) for a total of 7.5 weeks.

[7] = cholesterol-fed rabbits, IV VEGF 0.9 mg vs vehicle
[8] = cholesterol-fed rabbits, intracavernosal 0.9 mg VEGF at week 6, 10 days after injection, mean±SEM
[9] = cholesterol-fed rabbits, single intravenous bolus VEGF 0.9 mg vs vehicle

Substance: VEGF
- Acetylcholine Percent Maximal Relaxation [1]: 94.5±8.41%
- Sensitivity to Acetylcholine ED25 [1]: −5.48 ± 0.33
- Sensitivity to Acetylcholine ED75 [1]: −3.50 ± 0.41
- Sensitivity to Sodium Nitroprusside ED75 [1]: −5.52 ± 0.18
- Sodium Nitroprusside Percent Maximal Relaxation [1]: 145 ± 8.26%
- VEGF ELISA optical density (OD) minus background ([2]; cholesterol-fed animals treated with VEGF (IC)): 0.168
- VEGF ELISA optical density (OD) ([2]; cholesterol-fed animals, IV VEGF administration): 0.128
- tumescence [3]: approximately 80%
- VEGF immunoexpression ([4]; cholesterol-fed animals): 19.67±1.38 arbitrary units
- VEGF protein immunoexpression, effect of IV VEGF ([4]; cholesterol-fed animals, IV VEGF 0.9 mg vs vehicle): augmented
- VEGF immunoexpression ([4]; normal diet animals): 37.6±1.12 arbitrary units
- VEGF expression, effect of VEGF therapy ([4]; single intracavernosal VEGF 0.9 mg vs vehicle): augmented
- smooth muscle content, effect of VEGF treatment ([5]; IC VEGF 0.9 mg vs vehicle): not affected
- trabecular smooth muscle content ([5]; IC VEGF 0.9 mg, relative to normal diet, vehicle-treated = 1.0, mean±SEM): 0.82±0.016 arbitrary units
- Acetylcholine ED50 (−Log (M)) ([6]; Cholesterol / IC VEGF 0.9 mg): 4.94 0.25 −Log (M)
- Sodium Nitroprusside ED50 (−Log (M)) ([6]; Cholesterol / IC VEGF 0.9 mg): 6.36 0.16 −Log (M)
- Acetylcholine ED50 (−Log (M)) ([6]; Cholesterol / IV VEGF 0.9 mg): 6.33 0.40 −Log (M)
- Sodium Nitroprusside ED50 (−Log (M)) ([6]; Cholesterol / IV VEGF 0.9 mg): 6.93 0.25 −Log (M)
- endothelium-dependent (acetylcholine) smooth muscle relaxation, effect of VEGF treatment ([6]; cholesterol-fed rabbits, IC VEGF 0.9 mg vs vehicle): not affected
- SNP-mediated, direct smooth muscle relaxation, effect of IV VEGF treatment [6, 7]: significantly improved
- endothelium-dependent smooth muscle relaxation, effect of IV VEGF treatment [6, 7]: augmented
- maximal relaxation to acetylcholine [6, 8]: 78.6±6.2 grams
- maximal relaxation to sodium nitroprusside [6, 8]: 113.9±6.3 grams
- sensitivity (ED50) to acetylcholine relaxation [6, 8]: 4.94±0.25 (−Log)(M)
- sensitivity to sodium nitroprusside relaxation at ED50 [6, 8]: 6.36±0.16 (−Log)(M)
- sodium nitroprusside relaxation ED75 [6, 8]: 5.75±0.16 (−Log)(M)
- endothelium dependent (ACH-mediated) maximal corporal smooth muscle relaxation, effect of VEGF [6, 9]: significantly augmented
- endothelium independent (SNP-mediated) maximal corporal smooth muscle relaxation, effect of VEGF [6, 9]: significantly augmented
- sensitivity (ED50) to ACH, effect of VEGF [6, 9]: enhanced
- sensitivity (ED50) to SNP, effect of VEGF [6, 9]: enhanced

Source: patent publication US20040033944A1, “Method of treating erectile dysfunction” (priority 1999, published 2004)
